Experimental data reported in the kinase profiling compilation of Christmann-Franck et al. (2016).
Several values for one entry are separate records, joined by “and”; a condition that tells them apart may be missing. Identical values can stand only once.

Columns and labels:
Assay in all cases: radiometric filter-binding kinase assay, Kinase HotSpot
Settings in all cases: compound 0.5 µM; ATP 10 µM
EPHA4 (human) = EPHA4 (human) (UniProt P54764)
ULK3 (human) = ULK3 (human) (UniProt Q6PHR2)
STK39 (human) = STK39 (human) (UniProt Q9UEW8)
CSK (human) = CSK (human) (UniProt P41240)
MAP3K7 TAB1 (human) = MAP3K7 TAB1 (human) (UniProt O43318+Q15750)
CLK2 (human) = CLK2 (human) (UniProt P49760)
BRAF (human) = BRAF (human) (UniProt P15056)
Chain of BRAF (human) (P15056 whole entry, looked up): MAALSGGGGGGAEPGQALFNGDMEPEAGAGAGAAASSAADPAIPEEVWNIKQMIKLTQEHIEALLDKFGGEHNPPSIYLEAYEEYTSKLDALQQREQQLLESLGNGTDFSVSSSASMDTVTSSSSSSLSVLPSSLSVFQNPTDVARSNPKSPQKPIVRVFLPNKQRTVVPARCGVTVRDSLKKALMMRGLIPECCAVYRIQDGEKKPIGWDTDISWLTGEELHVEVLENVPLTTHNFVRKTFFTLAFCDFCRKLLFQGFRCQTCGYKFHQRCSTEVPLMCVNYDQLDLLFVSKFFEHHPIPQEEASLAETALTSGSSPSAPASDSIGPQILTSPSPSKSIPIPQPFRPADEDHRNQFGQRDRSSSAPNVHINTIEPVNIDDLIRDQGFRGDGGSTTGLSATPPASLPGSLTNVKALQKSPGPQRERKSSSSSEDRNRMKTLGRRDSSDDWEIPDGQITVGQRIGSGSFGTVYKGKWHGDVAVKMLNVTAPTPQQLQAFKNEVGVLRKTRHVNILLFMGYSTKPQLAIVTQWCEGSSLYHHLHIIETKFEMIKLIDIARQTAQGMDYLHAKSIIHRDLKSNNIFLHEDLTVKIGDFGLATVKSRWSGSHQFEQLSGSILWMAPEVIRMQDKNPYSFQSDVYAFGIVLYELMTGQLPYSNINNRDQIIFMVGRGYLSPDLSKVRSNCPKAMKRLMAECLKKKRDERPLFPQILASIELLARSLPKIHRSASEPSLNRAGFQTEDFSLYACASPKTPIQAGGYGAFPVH

PRKCH (human) = PRKCH (human) (UniProt P24723)
MATK (human) = MATK (human) (UniProt P42679)
PLK3 (human) = PLK3 (human) (UniProt Q9H4B4)
MAP4K4 (human) = MAP4K4 (human) (UniProt O95819)
IKBKB (human) = IKBKB (human) (UniProt O14920)
MAPKAPK2 (human) = MAPKAPK2 (human) (UniProt P49137)
PRKG1 (human) = PRKG1 (human) (UniProt Q13976)
MAP3K11 (human) = MAP3K11 (human) (UniProt Q16584)
EPHA6 (human) = EPHA6 (human) (UniProt Q9UF33)
CDC42BPA (human) = CDC42BPA (human) (UniProt Q5VT25)
Chain of CDC42BPA (human) (Q5VT25 whole entry, looked up): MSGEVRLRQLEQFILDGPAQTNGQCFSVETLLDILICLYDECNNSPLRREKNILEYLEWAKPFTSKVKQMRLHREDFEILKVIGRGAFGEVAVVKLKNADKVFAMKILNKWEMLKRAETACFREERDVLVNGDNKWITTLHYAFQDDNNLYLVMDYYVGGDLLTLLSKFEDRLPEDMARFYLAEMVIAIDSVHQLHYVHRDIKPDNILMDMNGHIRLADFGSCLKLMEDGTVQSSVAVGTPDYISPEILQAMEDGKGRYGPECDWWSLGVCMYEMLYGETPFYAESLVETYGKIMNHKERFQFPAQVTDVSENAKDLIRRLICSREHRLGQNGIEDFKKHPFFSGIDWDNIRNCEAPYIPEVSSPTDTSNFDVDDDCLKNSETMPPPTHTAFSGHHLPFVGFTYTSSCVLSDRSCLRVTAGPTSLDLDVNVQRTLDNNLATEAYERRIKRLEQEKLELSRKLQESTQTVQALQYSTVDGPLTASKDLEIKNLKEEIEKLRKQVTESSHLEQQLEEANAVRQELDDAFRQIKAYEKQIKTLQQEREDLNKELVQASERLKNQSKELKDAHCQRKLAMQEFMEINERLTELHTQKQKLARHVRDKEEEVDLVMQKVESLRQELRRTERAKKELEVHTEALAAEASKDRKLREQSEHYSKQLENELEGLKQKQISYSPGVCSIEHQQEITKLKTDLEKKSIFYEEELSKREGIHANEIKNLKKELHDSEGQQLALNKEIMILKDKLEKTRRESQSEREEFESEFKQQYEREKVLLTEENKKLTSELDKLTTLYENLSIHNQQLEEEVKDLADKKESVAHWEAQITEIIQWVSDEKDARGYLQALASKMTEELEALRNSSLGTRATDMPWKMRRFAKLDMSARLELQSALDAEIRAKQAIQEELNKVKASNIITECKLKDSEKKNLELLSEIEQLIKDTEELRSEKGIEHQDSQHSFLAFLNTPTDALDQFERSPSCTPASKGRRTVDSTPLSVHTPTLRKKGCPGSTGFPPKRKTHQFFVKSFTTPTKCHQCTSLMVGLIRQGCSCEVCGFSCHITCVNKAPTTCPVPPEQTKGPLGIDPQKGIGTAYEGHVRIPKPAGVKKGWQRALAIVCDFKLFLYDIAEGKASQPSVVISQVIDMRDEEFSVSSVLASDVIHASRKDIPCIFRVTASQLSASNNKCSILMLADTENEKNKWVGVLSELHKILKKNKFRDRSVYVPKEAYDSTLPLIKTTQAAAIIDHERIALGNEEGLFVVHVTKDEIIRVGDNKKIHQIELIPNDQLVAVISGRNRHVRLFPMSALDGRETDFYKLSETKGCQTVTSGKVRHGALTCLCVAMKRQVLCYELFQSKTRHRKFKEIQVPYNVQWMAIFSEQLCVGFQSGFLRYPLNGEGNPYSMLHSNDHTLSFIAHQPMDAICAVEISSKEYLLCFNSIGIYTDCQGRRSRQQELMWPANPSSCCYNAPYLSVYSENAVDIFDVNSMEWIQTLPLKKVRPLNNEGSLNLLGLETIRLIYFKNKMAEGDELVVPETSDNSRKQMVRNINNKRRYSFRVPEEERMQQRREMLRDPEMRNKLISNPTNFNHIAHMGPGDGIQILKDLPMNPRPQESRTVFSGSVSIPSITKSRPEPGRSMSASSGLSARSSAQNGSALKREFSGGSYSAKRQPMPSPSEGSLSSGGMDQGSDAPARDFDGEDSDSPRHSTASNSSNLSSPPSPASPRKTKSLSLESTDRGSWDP

JAK3 JH1 JH2 (human) = JAK3 JH1 JH2 (human) (UniProt P52333)
PRKCE (human) = PRKCE (human) (UniProt Q02156)
GSG2 (human) = GSG2 (human) (UniProt Q8TF76)
VRK1 (human) = VRK1 (human) (UniProt Q99986)
DAPK2 (human) = DAPK2 (human) (UniProt Q9UIK4)
PAK1 (human) = PAK1 (human) (UniProt Q13153)
CDK6 CCND3 (human) = CDK6 CCND3 (human) (UniProt P30281+Q00534)
ALK (human) = ALK (human) (UniProt Q9UM73)
MST4 (human) = MST4 (human) (UniProt Q9P289)
Chain of MST4 (human) (Q9P289 whole entry, looked up): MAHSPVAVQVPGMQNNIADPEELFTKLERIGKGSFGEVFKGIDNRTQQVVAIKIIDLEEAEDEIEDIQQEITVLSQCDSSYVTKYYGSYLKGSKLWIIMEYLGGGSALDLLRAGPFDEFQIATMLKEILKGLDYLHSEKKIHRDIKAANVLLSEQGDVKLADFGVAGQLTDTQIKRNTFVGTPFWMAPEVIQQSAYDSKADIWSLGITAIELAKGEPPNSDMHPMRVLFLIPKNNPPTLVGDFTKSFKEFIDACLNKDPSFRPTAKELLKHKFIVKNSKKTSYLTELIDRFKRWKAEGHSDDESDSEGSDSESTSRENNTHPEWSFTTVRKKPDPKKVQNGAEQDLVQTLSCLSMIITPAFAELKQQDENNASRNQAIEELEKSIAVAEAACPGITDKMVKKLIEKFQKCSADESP

NLK (human) = NLK (human) (UniProt Q9UBE8)
CAMK2A (human) = CAMK2A (human) (UniProt Q9UQM7)
DCLK2 (human) = DCLK2 (human) (UniProt Q8N568)
CDK6 CCND1 (human) = CDK6 CCND1 (human) (UniProt Q00534+P24385)
Chain of CDK6 CCND1 (human) (P24385 whole entry, looked up): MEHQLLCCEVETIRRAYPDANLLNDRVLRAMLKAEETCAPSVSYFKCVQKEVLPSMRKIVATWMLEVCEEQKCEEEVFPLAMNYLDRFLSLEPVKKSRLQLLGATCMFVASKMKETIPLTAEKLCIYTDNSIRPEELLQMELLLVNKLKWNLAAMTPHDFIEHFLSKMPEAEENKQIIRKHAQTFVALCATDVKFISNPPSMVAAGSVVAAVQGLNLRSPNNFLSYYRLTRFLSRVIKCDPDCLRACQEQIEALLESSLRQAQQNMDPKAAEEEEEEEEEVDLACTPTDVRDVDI
Chain of CDK6 CCND1 (human) (Q00534 whole entry, looked up): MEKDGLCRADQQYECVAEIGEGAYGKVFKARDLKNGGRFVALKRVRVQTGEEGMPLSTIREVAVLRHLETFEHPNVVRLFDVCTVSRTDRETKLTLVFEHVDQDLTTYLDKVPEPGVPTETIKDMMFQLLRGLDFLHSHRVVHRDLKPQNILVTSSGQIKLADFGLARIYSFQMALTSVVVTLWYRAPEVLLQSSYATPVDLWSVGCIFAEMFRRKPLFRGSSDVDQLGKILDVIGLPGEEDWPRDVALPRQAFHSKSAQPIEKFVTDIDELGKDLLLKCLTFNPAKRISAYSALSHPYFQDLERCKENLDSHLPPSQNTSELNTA

CHEK2 (human) = CHEK2 (human) (UniProt O96017)
AURKB (human) = AURKB (human) (UniProt Q96GD4)
EGFR (human) = EGFR (human) (UniProt P00533)
IGF1R (human) = IGF1R (human) (UniProt P08069)
NEK9 (human) = NEK9 (human) (UniProt Q8TD19)
CDK7 CCNH MNAT1 (human) = CDK7 CCNH MNAT1 (human) (UniProt P50613+P51948+P51946)
NEK6 (human) = NEK6 (human) (UniProt Q9HC98)
CDK3 CCNE1 (human) = CDK3 CCNE1 (human) (UniProt Q00526+P24864)
FLT3 (human) = FLT3 (human) (UniProt P36888)
Chain of FLT3 (human) (P36888 whole entry, looked up): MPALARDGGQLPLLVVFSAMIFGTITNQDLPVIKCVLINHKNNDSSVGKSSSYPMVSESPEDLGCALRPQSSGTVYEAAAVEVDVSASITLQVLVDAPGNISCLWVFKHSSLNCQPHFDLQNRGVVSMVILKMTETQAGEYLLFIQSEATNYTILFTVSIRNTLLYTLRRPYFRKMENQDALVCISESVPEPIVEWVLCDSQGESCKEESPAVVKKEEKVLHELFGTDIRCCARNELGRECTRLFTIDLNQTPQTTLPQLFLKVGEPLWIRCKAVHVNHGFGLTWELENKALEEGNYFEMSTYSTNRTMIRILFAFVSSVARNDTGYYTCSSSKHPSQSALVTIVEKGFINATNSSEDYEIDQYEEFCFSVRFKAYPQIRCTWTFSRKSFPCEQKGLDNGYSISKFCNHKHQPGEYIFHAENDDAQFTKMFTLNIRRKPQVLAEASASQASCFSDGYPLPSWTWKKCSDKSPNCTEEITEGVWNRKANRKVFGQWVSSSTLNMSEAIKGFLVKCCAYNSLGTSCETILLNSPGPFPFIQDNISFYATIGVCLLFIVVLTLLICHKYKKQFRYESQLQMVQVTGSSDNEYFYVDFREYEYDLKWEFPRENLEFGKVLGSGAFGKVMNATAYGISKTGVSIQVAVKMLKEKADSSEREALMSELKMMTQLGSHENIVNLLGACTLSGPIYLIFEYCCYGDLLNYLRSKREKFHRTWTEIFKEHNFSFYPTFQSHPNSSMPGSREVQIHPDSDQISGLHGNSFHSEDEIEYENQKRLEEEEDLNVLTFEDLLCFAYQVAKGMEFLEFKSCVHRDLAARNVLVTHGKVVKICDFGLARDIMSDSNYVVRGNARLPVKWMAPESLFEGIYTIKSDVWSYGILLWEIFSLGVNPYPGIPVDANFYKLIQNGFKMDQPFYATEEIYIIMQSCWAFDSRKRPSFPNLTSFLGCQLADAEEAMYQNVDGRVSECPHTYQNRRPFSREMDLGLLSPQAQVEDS

PRKCG (human) = PRKCG (human) (UniProt P05129)
LYN (human) = LYN (human) (UniProt P07948)
Chain of LYN (human) (P07948 whole entry, looked up): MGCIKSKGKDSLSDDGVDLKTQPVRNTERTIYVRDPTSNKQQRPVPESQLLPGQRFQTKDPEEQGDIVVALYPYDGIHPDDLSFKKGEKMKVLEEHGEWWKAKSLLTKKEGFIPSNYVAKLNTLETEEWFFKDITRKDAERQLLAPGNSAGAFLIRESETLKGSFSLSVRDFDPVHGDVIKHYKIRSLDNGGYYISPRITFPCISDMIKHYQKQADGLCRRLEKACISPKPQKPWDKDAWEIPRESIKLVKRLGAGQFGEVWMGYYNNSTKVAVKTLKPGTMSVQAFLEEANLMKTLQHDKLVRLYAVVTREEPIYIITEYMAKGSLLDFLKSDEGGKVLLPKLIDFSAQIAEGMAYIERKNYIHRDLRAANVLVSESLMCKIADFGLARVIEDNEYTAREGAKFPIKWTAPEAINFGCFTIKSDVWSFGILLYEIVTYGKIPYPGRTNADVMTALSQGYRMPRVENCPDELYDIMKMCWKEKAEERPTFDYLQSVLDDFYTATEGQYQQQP

SMILES	residual activity (EPHA4 (human))	residual activity (ULK3 (human))	residual activity (STK39 (human))	residual activity (CSK (human))	residual activity (MAP3K7 TAB1 (human))	residual activity (CLK2 (human))	residual activity (BRAF (human))	residual activity (PRKCH (human))	residual activity (MATK (human))	residual activity (PLK3 (human))	residual activity (MAP4K4 (human))	residual activity (IKBKB (human))	residual activity (MAPKAPK2 (human))	residual activity (PRKG1 (human))	residual activity (MAP3K11 (human))	residual activity (EPHA6 (human))	residual activity (CDC42BPA (human))	residual activity (PRKCE (human))	residual activity (GSG2 (human))	residual activity (VRK1 (human))	other results
CN(C)S(=O)(=O)c1ccc2c(c1)/C(=C/c1cc3c([nH]1)CCCC3)C(=O)N2	91.3%	26.3%	99.5%	93.1%	89%	32.1%	89.2%	78.5%	104%	94.5%	46.1%	107%	101%	82.5% and 88.6%	57.4%	61.9%	92.3%	94.6%	116%	104%	residual activity (JAK3 JH1 JH2 (human)): 64.8%; residual activity (DAPK2 (human)): 93.5%; residual activity (PAK1 (human)): 96.1%; residual activity (CDK6 CCND3 (human)): 84.2%; residual activity (ALK (human)): 43.6%; residual activity (MST4 (human)): 45.6%; residual activity (NLK (human)): 99.7%; residual activity (CAMK2A (human)): 61.4%; residual activity (DCLK2 (human)): 72%; residual activity (CDK6 CCND1 (human)): 92.5%; residual activity (CHEK2 (human)): 46.1%; residual activity (AURKB (human)): 11%; residual activity (EGFR (human)): 93.4%; residual activity (IGF1R (human)): 89.5%; residual activity (NEK9 (human)): 93.2%; residual activity (CDK7 CCNH MNAT1 (human)): 76.4%; residual activity (NEK6 (human)): 90.7%; residual activity (CDK3 CCNE1 (human)): 96.9%; residual activity (FLT3 (human)): 10.2%; residual activity (PRKCG (human)): 86.8%
N#Cc1c[nH]c2c[nH]/c(=N\Cc3cccnc3)cc2/c1=N\c1ccc(F)c(Cl)c1	92.8%	72%	78.6%	95.2%	89.5%	79.9%	106%	117%	95.9%	91.1%	44.4%	103%	100%	87.2% and 90.8%	89%	76.2%	80%	101%	82.5%	99.2%	residual activity (LYN (human)): 90.4% and 94.1%; residual activity (JAK3 JH1 JH2 (human)): 86.2%; residual activity (DAPK2 (human)): 108%; residual activity (PAK1 (human)): 95.7%; residual activity (CDK6 CCND3 (human)): 88.8%; residual activity (ALK (human)): 107%; residual activity (MST4 (human)): 95%; residual activity (NLK (human)): 88%; residual activity (CAMK2A (human)): 105%; residual activity (DCLK2 (human)): 97.2%; residual activity (CDK6 CCND1 (human)): 92.2%; residual activity (CHEK2 (human)): 90.5%; residual activity (AURKB (human)): 90.1%; residual activity (IGF1R (human)): 93.8%; residual activity (NEK9 (human)): 96.3%; residual activity (CDK7 CCNH MNAT1 (human)): 87.4%; residual activity (NEK6 (human)): 104%; residual activity (CDK3 CCNE1 (human)): 95.6%; residual activity (FLT3 (human)): 83.6%; residual activity (PRKCG (human)): 111%
C[C@@H]1CCN(C(=O)CC#N)C[C@@H]1N(C)c1ncnc2[nH]ccc12	99.1%	101%	95.1%	101%	87.5%	85.8%	93.7%	100%	66.9%	99.1%	101%	88.2%	96.6%	82% and 87.8%	104%	99%	110%	98.5%	77.9%	100%	residual activity (LYN (human)): 96.3% and 98.6%; residual activity (DAPK2 (human)): 89.5%; residual activity (PAK1 (human)): 108%; residual activity (CDK6 CCND3 (human)): 110%; residual activity (ALK (human)): 107%; residual activity (MST4 (human)): 105%; residual activity (NLK (human)): 110%; residual activity (CAMK2A (human)): 99.6%; residual activity (DCLK2 (human)): 96.6%; residual activity (CDK6 CCND1 (human)): 96.5%; residual activity (CHEK2 (human)): 104%; residual activity (AURKB (human)): 99.2%; residual activity (IGF1R (human)): 93.1%; residual activity (NEK9 (human)): 96.2%; residual activity (CDK7 CCNH MNAT1 (human)): 119%; residual activity (NEK6 (human)): 83.2%; residual activity (CDK3 CCNE1 (human)): 92.3%; residual activity (FLT3 (human)): 77.9%; residual activity (PRKCG (human)): 90.6%
